Results reported in US4594329A, “CRF analogs” (The Salk Institute for Biological Studies, priority 1984, dated 1986).
pEC50: −log10 of the molar value.

Key:
[1] = test system: cultured rat pituitary cells; assay: secretion of ACTH and β-endorphin by cultured rat pituitary cells; format: cell-based; conditions: for stimulates the secretion of ACTH and β-END-LI: general procedure of Example III
Method: (§1) The synthetic peptide AHC and oCRF were examined for their effects on the secretion of ACTH and β-endorphin in vitro and was also in vivo. The potency of synthetic oCRF to stimulate the secretion of ACTH and β-endorphin by cultured rat pituitary cells was measured using the procedure as generally set forth in Endocrinology, 91, 562 (1972). […] In vivo testing is carried out using the general procedure set forth in C. Rivier et al., Science, 218, 377 (1982).

[2] = lowering of blood pressure, in vivo testing; conditions: general procedure of Example III
Method: as §1

Molecule	stimulates the secretion of ACTH and β-END-LI [1]	lowering of blood pressure [2]	pEC50 ([1]; cultured rat pituitary cells, read-out: concentration giving half-maximal responses, secretion of ACTH and β-endorphin)	potency ([1]; general statement, compared with native CRF, test not named)	secretory response to maximal concentrations ([1]; maximal (1-5 nM) concentrations)
CC[C@H](C)[C@H](NC(=O)[C@@H](NC(=O)[C@H](CC(=O)O)NC(=O)[C@H](CC(C)C)NC(=O)[C@H](CC(C)C)NC(=O)[C@H](CC(C)C)NC(=O)[C@H](CCCNC(=N)N)NC(=O)[C@H](CC(N)=O)NC(=O)[C@H](CC(N)=O)NC(=O)[C@H](C)NC(=O)[C@H](C)NC(=O)[C@H](CCC(N)=O)NC(=O)[C@H](CCC(=O)O)NC(=O)[C@H](CCCCN)NC(=O)[C@H](CCC(=O)O)NC(=O)[C@H](CCCCN)NC(=O)[C@H](CCC(=O)O)NC(=O)[C@H](CCC(N)=O)NC(=O)[C@H](CCCCN)NC(=O)[C@H](CCCNC(=N)N)NC(=O)[C@H](C)NC(=O)[C@H](CCC(=O)O)NC(=O)[C@@H](NC(=O)[C@H](CCSC)NC(=O)[C@H](CCCCN)NC(=O)[C@H](CCCNC(=N)N)NC(=O)[C@H](CC(C)C)NC(=O)[C@H](CC(C)C)NC(=O)[C@H](CCC(=O)O)NC(=O)[C@H](CC(C)C)NC(=O)[C@H](CO)NC(=O)[C@H](CC(C)C)NC(=O)[C@H](CC(=O)O)NC(=O)[C@@H](NC(=O)[C@H](CO)NC(=O)[C@@H](NC(=O)[C@@H]1CCCN1C(=O)[C@@H]1CCCN1C(=O)CNC(=O)[C@@H]1CCC(=O)N1)[C@@H](C)CC)[C@@H](C)CC)[C@@H](C)CC)[C@@H](C)CC)C(N)=O	stimulates the secretion of ACTH and β-END-LI	very significant lowering of blood pressure			
CC[C@H](C)[C@H](NC(=O)[C@H](CCC(=O)O)NC(=O)[C@H](CC(=O)O)NC(=O)[C@H](CCSC)NC(=O)[C@H](CC(C)C)NC(=O)[C@H](CCCCNC(=N)N)NC(=O)[C@H](CCCNC(=N)N)NC(=O)[C@H](CC(N)=O)NC(=O)[C@H](CC(N)=O)NC(=O)[C@H](C)NC(=O)[C@H](C)NC(=O)[C@H](CCC(N)=O)NC(=O)[C@H](CCC(N)=O)NC(=O)[C@H](CCCCN)NC(=O)[C@H](CC(C)C)NC(=O)[C@H](CCCCN)NC(=O)[C@H](CCC(=O)O)NC(=O)[C@H](CCC(N)=O)NC(=O)[C@H](CCCCN)NC(=O)[C@H](CCC(=O)O)NC(=O)[C@@H](NC(=O)[C@H](CCC(=O)O)NC(=O)[C@@H](NC(=O)[C@H](CCSC)NC(=O)[C@H](CCCCN)NC(=O)[C@H](CCCNC(=N)N)NC(=O)[C@H](CC(C)C)NC(=O)[C@H](CC(C)C)NC(=O)[C@H](CCC(=O)O)NC(=O)[C@H](CC(C)C)NC(=O)[C@H](CO)NC(=O)[C@H](CC(C)C)NC(=O)[C@H](CC(=O)O)NC(=O)[C@@H](NC(=O)[C@H](CO)NC(=O)[C@@H](NC(=O)[C@@H]1CCCN1C(=O)[C@@H]1CCCN1C(=O)CNC(=O)[C@@H]1CCC(=O)N1)[C@@H](C)CC)[C@@H](C)CC)[C@@H](C)CC)[C@@H](C)CC)C(N)=O	stimulates the secretion of ACTH and β-END-LI	very significant lowering of blood pressure			
H-SQEPPISLDLTFHLLREMLEMAKAEQEAEQAALNRLLLEEA-NH2 [AHC]			~10.19	particularly potent	at a plateau level
